This is an account of results in patent publication US9233965B2, “3,4-dihydropyrrolo[1,2-A]pyrazine-2,8(1H)-dicarboxamide derivatives, preparation thereof and therapeutic use thereof for diseases involving casein kinase 1 epsilon and/or casein kinase 1 delta” (SANOFI, priority 2010, dated 2016).

A value given as a limit tells only on which side of the number the result lay.

For data set [1], the target named is casein kinase 1 epsilon (CK1 epsilon) (Homo sapiens (Human), UniProt P49674). In words: Test A: inhibitory activity on CK1 epsilon, casein phosphorylation assay on ATP-33P filter plate. It counts as biochemical. To be noted: IC50 values or IC50 ranges (result of several experiments), ATP 10 μM final. Put shortly:
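Human CK1 epsilon (3 ng/μL final) phosphorylates dephosphorylated casein (0.2 μg/μL) with ATP-33P plus 10 μM cold ATP (KM for ATP 21 μM), 2 h at room temperature, pH 7.5 Tris buffer. TCA-precipitated protein counted by scintillation; compounds at 10 to 0.001 μM give IC50 values or % inhibition at 10 μM.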

Sequence of casein kinase 1 epsilon (CK1 epsilon) (P49674 whole entry): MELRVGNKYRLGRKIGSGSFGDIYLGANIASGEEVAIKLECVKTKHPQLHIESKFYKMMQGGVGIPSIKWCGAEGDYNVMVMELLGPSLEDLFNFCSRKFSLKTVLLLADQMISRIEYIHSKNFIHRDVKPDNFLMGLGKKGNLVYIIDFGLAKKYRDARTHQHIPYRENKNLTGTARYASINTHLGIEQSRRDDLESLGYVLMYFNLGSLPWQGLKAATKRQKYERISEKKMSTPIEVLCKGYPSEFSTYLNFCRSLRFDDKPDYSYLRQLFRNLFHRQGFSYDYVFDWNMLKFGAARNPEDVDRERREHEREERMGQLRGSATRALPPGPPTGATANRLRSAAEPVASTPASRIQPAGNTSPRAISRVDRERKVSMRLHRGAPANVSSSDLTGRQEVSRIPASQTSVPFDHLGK

Take `NC(=O)c1c(-c2ccccc2)c(Cl)n2c1CN(C(=O)NC1CCOC1)CC2` (stereo not drawn) [Compound 92, 6-chloro-7-phenyl-N^2-(tetrahydrofuran-3-yl)-3,4-dihydropyrrolo[1,2-a]pyrazine-2,8(1H)-dicarboxamide]: the melting point fell in the range of 181 to 185 °C. Besides, the IC50 in data set [1] lay in the range of 11 to 13 nM.

The compound `NC(=O)c1c(-c2cccc(OC(F)(F)F)c2)c(Cl)n2c1CN(C(=O)NC1CCOCC1)CC2` [Compound 97, 6-chloro-N^2-(tetrahydro-2H-pyran-4-yl)-7-[3-(trifluoromethoxy)phenyl]-3,4-dihydropyrrolo[1,2-a]pyrazine-2,8(1H)-dicarboxamide] registered a melting point of 203 to 205 °C. This compound returned a half-maximal inhibitory concentration (IC50) in data set [1] of 122 nM.

Compound `CC1(C)CC(NC(=O)N2CCn3c(Cl)c(-c4cccc(F)c4)c(C(N)=O)c3C2)CCO1` (stereo not drawn) [Compound 99, 6-chloro-7-(3-fluorophenyl)-N^2-(2,2-dimethyl-tetrahydro-2H-pyran-4-yl)-3,4-dihydropyrrolo[1,2-a]pyrazine-2,8(1H)-dicarboxamide] registered a melting point of 141 to 143 °C. Moreover, in data set [1], the IC50 was 4 nM.

`NC(=O)c1c(-c2ccccc2)c(Cl)n2c1CN(C(=O)NC1CCOCC1)CC2` [Compound 93, 6-chloro-7-phenyl-N^2-(tetrahydro-2H-pyran-4-yl)-3,4-dihydropyrrolo[1,2-a]pyrazine-2,8(1H)-dicarboxamide] registered a melting point of 227 to 229 °C. In data set [1], this compound had an IC50 of 21 to 28 nM.

As to `NC(=O)c1c(-c2cccc(F)c2)c(Cl)n2c1CN(C(=O)NC1CCC(F)(F)CC1)CC2` [Compound 89, 6-chloro-N^2-(4,4-difluoro-cyclo-hexyl)-7-(3-fluorophenyl)-3,4-dihydropyrrolo[1,2-a]pyrazine-2,8(1H)-dicarboxamide], the melting point lay in the range of 212 to 214 °C. Besides, in data set [1], the 50% inhibitory concentration (IC50) is 1 to 3 nM.

For `COc1ccc(-c2c(C(N)=O)c3n(c2C2CC2)CCN(C(=O)NC2CCOCC2)C3)cc1` [Compound 56, 6-cyclo-propyl-7-(4-methoxyphenyl)-N^2-(tetrahydro-2H-pyran-4-yl)-3,4-dihydropyrrolo[1,2-a]pyrazine-2,8(1H)-dicarboxamide], the melting point lay within 176 to 177 °C. The compound further had a 50% inhibitory concentration (IC50) in data set [1] of 26 to 38 nM.

`NC(=O)c1c(-c2cccc(F)c2)c(Cl)n2c1CN(C(=O)NCCC(F)(F)F)CC2` [Compound 80, 6-chloro-7-(3-fluorophenyl)-N^2-(3,3,3-trifluoropropyl)-3,4-dihydropyrrolo[1,2-a]pyrazine-2,8(1H)-dicarboxamide] gave a melting point of 119 to 124 °C. This compound also returned an IC50 in data set [1] of 2 to 16 nM.

As for `NC(=O)c1c(-c2cccc(F)c2)c(Cl)n2c1CN(C(=O)NC1COC1)CC2` [Compound 90, 6-chloro-7-(3-fluorophenyl)-N^2-(oxetan-3-yl)-3,4-dihydropyrrolo[1,2-a]pyrazine-2,8(1H)-dicarboxamide], the melting point lay within 184 to 186 °C. This compound displayed an IC50 in data set [1] of 6 to 7 nM.

Compound `COCC(C)(C)NC(=O)N1CCn2c(c(C(N)=O)c(-c3ccc(OC)cc3)c2C2CC2)C1` [Compound 57, 6-cyclo-propyl-N^2-(1-methoxy-2-methylpropan-2-yl)-7-(4-methoxyphenyl)-3,4-dihydropyrrolo[1,2-a]pyrazine-2,8(1H)-dicarboxamide] yielded a melting point of 168 to 170 °C. In data set [1], this compound yielded an IC50 of 36 nM.

Compound `CC(C)(C)NC(=O)N1CCn2c(c(C(N)=O)c(-c3ccc(OCc4ccccc4)cc3)c2C2CC2)C1` [Compound 40, 7-[4-(benzyloxy)phenyl]-N^2-tert-butyl-6-cyclo-propyl-3,4-dihydropyrrolo[1,2-a]pyrazine-2,8(1H)-dicarboxamide] gave a melting point of 203 to 206 °C. The compound further returned an IC50 in data set [1] of 38 nM.

Regarding `COc1ccc(-c2c(C(N)=O)c3n(c2C2CC2)CCN(C(=O)NC24CC5CC(CC2C5)C4)C3)cc1` [Compound 53, 6-cyclo-propyl-N^2-(hexahydro-2,5-methanopentalen-3a(1H)-yl)-7-(4-methoxyphenyl)-3,4-dihydropyrrolo[1,2-a]pyrazine-2,8(1H)-dicarboxamide], the melting point was in the range of 216 to 219 °C. In addition, half-maximal inhibition in data set [1] (IC50) was put at 7 nM.

In the case of `N#Cc1c(-c2cccc(F)c2)c(C(N)=O)c2n1CCN(C(=O)NC1CCC(F)(F)CC1)C2` [Compound 110, 6-cyano-N^2-(4,4-difluoro-cyclohexyl)-7-(3-fluorophenyl)-3,4-dihydropyrrolo[1,2-a]pyrazine-2,8(1H)-dicarboxamide], the melting point was 237 to 240 °C. Moreover, the 50% inhibitory concentration (IC50) in data set [1] is below 1 nM.

Compound `CC(C)(CO)CNC(=O)N1CCn2c(Cl)c(-c3cccc(F)c3)c(C(N)=O)c2C1` [Compound 73, 6-chloro-7-(3-fluorophenyl)-N^2-(3-hydroxy-2,2-dimethylpropyl)-3,4-dihydropyrrolo[1,2-a]pyrazine-2,8(1H)-dicarboxamide] yielded a melting point of 205 to 207 °C. The compound further showed an IC50 in data set [1] of 1 to 11 nM.

In turn, `CC(C)(C)NC(=O)N1CCn2c(Br)c(-c3cccc(F)c3)c(C(N)=O)c2C1` [Compound 104, 6-bromo-7-(3-fluorophenyl)-N^2-tert-butyl-3,4-dihydropyrrolo[1,2-a]pyrazine-2,8(1H)-dicarboxamide] gave a melting point of 184 to 189 °C. Also, in data set [1], the half-maximal inhibitory concentration (IC50) was below 1 nM.

`CC(C)(C)NC(=O)N1CCn2c(c(C(N)=O)c(-c3ccc(Oc4ccccc4)cc3)c2C2CC2)C1` [Compound 39, N^2-tert-butyl-6-cyclo-propyl-7-(4-phenoxyphenyl)-3,4-dihydropyrrolo[1,2-a]pyrazine-2,8(1H)-dicarboxamide]: the melting point lay within 157 to 159 °C. Moreover, the half-inhibitory concentration (IC50) in data set [1] was 4 to 36 nM.

Regarding `CC1(CNC(=O)N2CCn3c(Cl)c(-c4cccc(F)c4)c(C(N)=O)c3C2)COC1` [Compound 91, 6-chloro-7-(3-fluorophenyl)-N^2-(3-methyl-oxetan-3-ylmethyl)-3,4-dihydropyrrolo[1,2-a]pyrazine-2,8(1H)-dicarboxamide], the melting point fell in the range of 249 to 253 °C. 4 nM corresponded to half-maximal inhibition in data set [1] (IC50).

Take `NC(=O)c1c(-c2cccc(F)c2)c(Cl)n2c1CN(C(=O)NC1CCOCC1)CC2` [Compound 98, 6-chloro-7-(3-fluorophenyl)-N^2-(tetrahydro-2H-pyran-4-yl)-3,4-dihydropyrrolo[1,2-a]pyrazine-2,8(1H)-dicarboxamide]: the melting point lay within 223 to 225 °C. In data set [1], this compound registered a half-maximal inhibitory concentration (IC50) of 2 to 16 nM.

Regarding `CC(C)CCNC(=O)N1CCn2c(Cl)c(-c3ccccc3)c(C(N)=O)c2C1` [Compound 69, 6-chloro-N^2-(3-methylbutyl)-7-phenyl-3,4-dihydropyrrolo[1,2-a]pyrazine-2,8(1H)-dicarboxamide], the melting point is 154 to 155 °C. Moreover, half-maximal inhibition in data set [1] (IC50) required 5 nM.

For the compound `COc1ccc(-c2cn3c(c2C(N)=O)CN(C(=O)NC(C)(C)C)CC3)cc1` [Compound 2, N^2-tert-butyl-7-(4-methoxyphenyl)-3,4-dihydropyrrolo[1,2-a]pyrazine-2,8(1H)-dicarboxamide], the melting point was 197 to 198 °C. This compound also had an IC50 in data set [1] below 1 nM.

The compound `NC(=O)c1c(-c2cccc(C(F)(F)F)c2)c(Cl)n2c1CN(C(=O)NC1CCOCC1)CC2` [Compound 96, 6-chloro-N^2-(tetrahydro-2H-pyran-4-yl)-7-[3-(trifluoromethyl)phenyl]-3,4-dihydropyrrolo[1,2-a]pyrazine-2,8(1H)-dicarboxamide] showed a melting point of 220 to 222 °C. Further, in data set [1], 19 nM corresponded to half-maximal inhibition (IC50).

In the case of `COc1ccc(-c2c(C(N)=O)c3n(c2C2CC2)CCN(C(=O)NC24CC5CC(CC(C5)C2)C4)C3)cc1` [Compound 55, N^2-(adamantan-1-yl)-6-cyclo-propyl-7-(4-methoxyphenyl)-3,4-dihydropyrrolo[1,2-a]pyrazine-2,8(1H)-dicarboxamide], the melting point is 224 to 226 °C. Besides, in data set [1], the half-inhibitory concentration (IC50) lay in the range of 3 to 5 nM.

Regarding `Cc1cccc(-c2c(C(N)=O)c3n(c2Cl)CCN(C(=O)NC(C)(C)C)C3)c1` [Compound 61, N^2-tert-butyl-6-chloro-7-(3-methylphenyl)-3,4-dihydropyrrolo[1,2-a]pyrazine-2,8(1H)-dicarboxamide], the melting point lay in the range of 196 to 197 °C. In addition, the 50% inhibitory concentration (IC50) in data set [1] lay in the range of 1 to 8 nM.

Compound `CC(C)(C)NC(=O)N1CCn2c(C#N)c(-c3cccc(F)c3)c(C(N)=O)c2C1` [Compound 105, 6-cyano-7-(3-fluorophenyl)-N^2-(tert-butyl)-3,4-dihydropyrrolo[1,2-a]pyrazine-2,8(1H)-dicarboxamide] yielded a melting point above 217 °C. In addition, the IC50 in data set [1] came out at 1 nM.

On to `N#Cc1c(-c2cccc(F)c2)c(C(N)=O)c2n1CCN(C(=O)NCCCC(F)(F)F)C2` [Compound 108, 6-cyano-7-(3-fluorophenyl)-N^2-(4,4,4-trifluoro-butyl)-3,4-dihydropyrrolo[1,2-a]pyrazine-2,8(1H)-dicarboxamide], for which the melting point was 169 to 171 °C. The compound also displayed an IC50 in data set [1] of 4 nM.

Regarding `CC(C)(C)NC(=O)N1CCn2c(Cl)c(-c3cccc(C#N)c3)c(C(N)=O)c2C1` [Compound 65, N^2-tert-butyl-6-chloro-7-(3-cyanophenyl)-3,4-dihydropyrrolo[1,2-a]pyrazine-2,8(1H)-dicarboxamide], the melting point was 192 to 195 °C. The compound further gave a concentration for half-maximal inhibition (IC50) in data set [1] of 1 to 2 nM.

Turning to `NC(=O)c1c(-c2ccccc2)c(Cl)n2c1CN(C(=O)NC1CCCCC1)CC2` [Compound 82, 6-chloro-N^2-cyclo-hexyl-7-phenyl-3,4-dihydropyrrolo[1,2-a]pyrazine-2,8(1H)-dicarboxamide], the melting point was 208 to 209 °C. For the same compound, the 50% inhibitory concentration (IC50) in data set [1] lay within 1 to 7 nM.

`CC(C)(C)NC(=O)N1CCn2c(Cl)c(-c3cccc(F)c3)c(C(N)=O)c2C1` [Compound 67, N^2-tert-butyl-6-chloro-7-(3-fluorophenyl)-3,4-dihydropyrrolo[1,2-a]pyrazine-2,8(1H)-dicarboxamide] displayed a melting point of 196 to 198 °C. In data set [1], this compound showed a 50% inhibitory concentration (IC50) of 1 to 5 nM.

Usually melting point stands for the temperature, or range, at which the solid turns liquid. The term IC50 denotes the concentration at which inhibition is half-maximal. A high value points to weaker potency in that assay.
